Measurements from US20170096402A1, “5-(HETERO)ARYLPYRIDAZINONES AND THEIR USE AS HERBICIDES” (BAYER CROPSCIENCE AKTIENGESELLSCHAFT, priority 2014, published 2017).

What was measured:
wheat = assay: Pre-emergence method, damage to crop plants; type: in vivo
From the text: Seeds of monocotyledonous and dicotyledonous weed plants and crop plants are laid out in wood-fiber pots in sandy loam and covered with soil. The compounds of the invention, formulated in the form of wettable powders (WP) or as emulsion concentrates (EC), are then applied to the surface of the covering soil in the form of an aqueous suspension or emulsion at a water application rate equating to 600 to 800 I/ha, with addition of 0.2% wetting agent. After the treatment, the pots are placed in a greenhouse and kept under good growth conditions for the trial plants. The damage to the test plants is scored visually after a test period of 3 weeks by comparison with untreated controls (herbicidal activity in percent (%): 100% activity=the plants have died, 0% activity=like control plants).

[1] = system: Triticum aestivum (wheat); assay: Post-emergence method, damage to crop plants (also comparative experiments, TRZAS); type: in vivo
Procedure: Seeds of monocotyledonous and dicotyledonous weed and crop plants are laid out in sandy loam in wood-fiber pots, covered with soil and cultivated in a greenhouse under good growth conditions. 2 to 3 weeks after sowing, the test plants are treated at the one-leaf stage. The compounds of the invention, formulated in the form of wettable powders (WP) or as emulsion concentrates (EC), are then sprayed onto the green parts of the plants in the form of an aqueous suspension or emulsion at a water application rate equating to 600 to 800 I/ha, with addition of 0.2% wetting agent. After the test plants have been left to stand in the greenhouse under optimal growth conditions for about 3 weeks, the action of the preparations is assessed visually in comparison to untreated controls (herbicidal action in percent (%): 100% activity=the plants have died, 0% activity=like control plants).

[2] = pre-emergence, 320 g per hectare, 3 weeks
[3] = post-emergence, 20 g per hectare, about 3 weeks

SMILES	damage in wheat (wheat; [2])	damage in wheat [1, 3]	damage in wheat (wheat; in vivo)	damage in wheat ([1]; in vivo)
Cc1c(-c2cnn(C)c(=O)c2O)ccc(C(F)(F)F)c1SCC1CC1 [1-553]	no damage	no damage	–	–
Cc1c(-c2cnn(C)c(=O)c2O)ccc(C(F)(F)F)c1[S+]([O-])CC1CC1 (centres unmarked) [1-554]	–	no damage	–	–
Cc1c(-c2cnn(C)c(=O)c2O)ccc(C(F)(F)F)c1S(=O)(=O)CC1CC1 [1-555, 5-{3-[(cyclopropylmethyl)sulfonyl]-2-methyl-4-(trifluoromethyl)phenyl}-4-hydroxy-2-methylpyridazin-3(2H)-one]	–	–	no damage	no damage
COCCSc1c(C(F)(F)F)ccc(-c2cnn(C)c(=O)c2O)c1C [1-1069]	no damage	no damage	–	–
COCC[S+]([O-])c1c(C(F)(F)F)ccc(-c2cnn(C)c(=O)c2O)c1C (centres unmarked) [1-1070]	no damage	no damage	–	–
COCCS(=O)(=O)c1c(C(F)(F)F)ccc(-c2cnn(C)c(=O)c2O)c1C [1-1071]	no damage	no damage	–	–
